#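 GI50: concentration for 50% inhibition of growth. TGI denotes the concentration required for complete inhibition of growth.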
# Legend:
# Experiment in all cases: NCI-60 cell line screen, 384-well format
# 786-0 renal = tested on: 786-0 renal
# A498 renal = tested on: A498 renal
# A549 NSCLC = tested on: A549 NSCLC
# ACHN renal = tested on: ACHN renal
# BT-549 breast = tested on: BT-549 breast
# CAKI-1 renal = tested on: CAKI-1 renal
# CCRF-CEM leukemia = tested on: CCRF-CEM leukemia
# COLO 205 colon = tested on: COLO 205 colon
# DU-145 prostate = tested on: DU-145 prostate
# EKVX NSCLC = tested on: EKVX NSCLC
# HCC-2998 colon = tested on: HCC-2998 colon
# HCT-116 colon = tested on: HCT-116 colon
# HCT-15 colon = tested on: HCT-15 colon
# HL-60(TB) leukemia = tested on: HL-60(TB) leukemia
# HOP-62 NSCLC = tested on: HOP-62 NSCLC
# HOP-92 NSCLC = tested on: HOP-92 NSCLC
# HS 578T breast = tested on: HS 578T breast
# HT29 colon = tested on: HT29 colon
# IGROV1 ovarian = tested on: IGROV1 ovarian
# K-562 leukemia = tested on: K-562 leukemia
# KM12 colon = tested on: KM12 colon
# LOX IMVI melanoma = tested on: LOX IMVI melanoma
# M14 melanoma = tested on: M14 melanoma
# MALME-3M melanoma = tested on: MALME-3M melanoma
# MCF7 breast = tested on: MCF7 breast
# MDA-MB-231 breast = tested on: MDA-MB-231 breast
# MDA-MB-435 melanoma = tested on: MDA-MB-435 melanoma
# MDA-MB-468 breast = tested on: MDA-MB-468 breast
# MOLT-4 leukemia = tested on: MOLT-4 leukemia
# NCI-H226 lung = tested on: NCI-H226 lung
# NCI-H23 lung = tested on: NCI-H23 lung
# NCI-H322M lung = tested on: NCI-H322M lung
# NCI-H460 NSCLC = tested on: NCI-H460 NSCLC
# NCI-H522 lung = tested on: NCI-H522 lung
# NCI/ADR-RES ovarian = tested on: NCI/ADR-RES ovarian
# OVCAR-3 ovarian = tested on: OVCAR-3 ovarian
# OVCAR-4 ovarian = tested on: OVCAR-4 ovarian
# OVCAR-5 ovarian = tested on: OVCAR-5 ovarian
# OVCAR-8 ovarian = tested on: OVCAR-8 ovarian
# PC-3 prostate = tested on: PC-3 prostate
# RPMI-8226 leukemia = tested on: RPMI-8226 leukemia
# RXF 393 renal = tested on: RXF 393 renal
# SF-268 CNS = tested on: SF-268 CNS
# SF-295 CNS = tested on: SF-295 CNS
# SF-539 CNS = tested on: SF-539 CNS
# SK-MEL-2 melanoma = tested on: SK-MEL-2 melanoma
# SK-MEL-28 melanoma = tested on: SK-MEL-28 melanoma
# SK-MEL-5 melanoma = tested on: SK-MEL-5 melanoma
# SK-OV-3 ovarian = tested on: SK-OV-3 ovarian
# SN12C renal = tested on: SN12C renal
# SNB-19 CNS = tested on: SNB-19 CNS
# SNB-75 CNS = tested on: SNB-75 CNS
# SR leukemia = tested on: SR leukemia
# SW-620 colon = tested on: SW-620 colon
# T-47D breast = tested on: T-47D breast
# TK-10 renal = tested on: TK-10 renal
# U251 glioblastoma = tested on: U251 glioblastoma
# UACC-257 melanoma = tested on: UACC-257 melanoma
# UACC-62 melanoma = tested on: UACC-62 melanoma
# UO-31 renal = tested on: UO-31 renal
smiles,measurement,setting,value
CS(=O)(=O)c1ccc(-c2cnc(NCc3ccco3)n3cnnc23)cc1,GI50,786-0 renal,> 100 µM
same,TGI,786-0 renal,> 100 µM
same,GI50,A498 renal,> 100 µM
same,TGI,A498 renal,> 100 µM
same,GI50,A549 NSCLC,> 100 µM
same,TGI,A549 NSCLC,> 100 µM
same,GI50,ACHN renal,> 100 µM
same,TGI,ACHN renal,> 100 µM
same,GI50,BT-549 breast,> 100 µM
same,TGI,BT-549 breast,> 100 µM
same,GI50,CAKI-1 renal,> 100 µM
same,TGI,CAKI-1 renal,> 100 µM
same,GI50,CCRF-CEM leukemia,> 85.5 µM
same,TGI,CCRF-CEM leukemia,> 100 µM
same,GI50,COLO 205 colon,35.8 µM
same,TGI,COLO 205 colon,> 100 µM
same,GI50,DU-145 prostate,> 100 µM
same,TGI,DU-145 prostate,> 100 µM
same,GI50,EKVX NSCLC,> 100 µM
same,TGI,EKVX NSCLC,> 100 µM
same,GI50,HCC-2998 colon,> 100 µM
same,TGI,HCC-2998 colon,> 100 µM
same,GI50,HCT-116 colon,> 100 µM
same,TGI,HCT-116 colon,> 100 µM
same,GI50,HCT-15 colon,> 100 µM
same,TGI,HCT-15 colon,> 100 µM
same,GI50,HL-60(TB) leukemia,72.2 µM
same,TGI,HL-60(TB) leukemia,> 100 µM
same,GI50,HOP-62 NSCLC,> 100 µM
same,TGI,HOP-62 NSCLC,> 100 µM
same,GI50,HOP-92 NSCLC,> 55.1 µM
same,TGI,HOP-92 NSCLC,> 100 µM
same,GI50,HS 578T breast,> 100 µM
same,TGI,HS 578T breast,> 100 µM
same,GI50,HT29 colon,61.3 µM
same,TGI,HT29 colon,> 100 µM
same,GI50,IGROV1 ovarian,> 100 µM
same,TGI,IGROV1 ovarian,> 100 µM
same,GI50,K-562 leukemia,> 95.2 µM
same,TGI,K-562 leukemia,> 100 µM
same,GI50,KM12 colon,> 100 µM
same,TGI,KM12 colon,> 100 µM
same,GI50,LOX IMVI melanoma,52.8 µM
same,TGI,LOX IMVI melanoma,> 100 µM
same,GI50,M14 melanoma,29.6 µM
same,TGI,M14 melanoma,> 100 µM
same,GI50,MALME-3M melanoma,16.9 µM
same,TGI,MALME-3M melanoma,45.3 µM
same,GI50,MCF7 breast,> 100 µM
same,TGI,MCF7 breast,> 100 µM
same,GI50,MDA-MB-231 breast,> 100 µM
same,TGI,MDA-MB-231 breast,> 100 µM
same,GI50,MDA-MB-435 melanoma,> 87.3 µM
same,TGI,MDA-MB-435 melanoma,> 100 µM
same,GI50,MDA-MB-468 breast,17.3 µM
same,TGI,MDA-MB-468 breast,49.3 µM
same,GI50,MOLT-4 leukemia,49 µM
same,TGI,MOLT-4 leukemia,> 100 µM
same,GI50,NCI-H226 lung,> 100 µM
same,TGI,NCI-H226 lung,> 100 µM
same,GI50,NCI-H23 lung,> 100 µM
same,TGI,NCI-H23 lung,> 100 µM
same,GI50,NCI-H322M lung,> 100 µM
same,TGI,NCI-H322M lung,> 100 µM
same,GI50,NCI-H460 NSCLC,> 100 µM
same,TGI,NCI-H460 NSCLC,> 100 µM
same,GI50,NCI-H522 lung,> 100 µM
same,TGI,NCI-H522 lung,> 100 µM
same,GI50,NCI/ADR-RES ovarian,> 100 µM
same,TGI,NCI/ADR-RES ovarian,> 100 µM
same,GI50,OVCAR-3 ovarian,> 100 µM
same,TGI,OVCAR-3 ovarian,> 100 µM
same,GI50,OVCAR-4 ovarian,> 100 µM
same,TGI,OVCAR-4 ovarian,> 100 µM
same,GI50,OVCAR-5 ovarian,> 100 µM
same,TGI,OVCAR-5 ovarian,> 100 µM
same,GI50,OVCAR-8 ovarian,> 100 µM
same,TGI,OVCAR-8 ovarian,> 100 µM
same,GI50,PC-3 prostate,> 100 µM
same,TGI,PC-3 prostate,> 100 µM
same,GI50,RPMI-8226 leukemia,6.1 µM
same,TGI,RPMI-8226 leukemia,> 33.7 µM
same,GI50,RXF 393 renal,> 76.7 µM
same,TGI,RXF 393 renal,> 100 µM
same,GI50,SF-268 CNS,> 100 µM
same,TGI,SF-268 CNS,> 100 µM
same,GI50,SF-295 CNS,> 100 µM
same,TGI,SF-295 CNS,> 100 µM
same,GI50,SF-539 CNS,> 100 µM
same,TGI,SF-539 CNS,> 100 µM
same,GI50,SK-MEL-2 melanoma,> 100 µM
same,TGI,SK-MEL-2 melanoma,> 100 µM
same,GI50,SK-MEL-28 melanoma,30.3 µM
same,TGI,SK-MEL-28 melanoma,> 100 µM
same,GI50,SK-MEL-5 melanoma,37.2 µM
same,TGI,SK-MEL-5 melanoma,> 100 µM
same,GI50,SK-OV-3 ovarian,> 100 µM
same,TGI,SK-OV-3 ovarian,> 100 µM
same,GI50,SN12C renal,> 100 µM
same,TGI,SN12C renal,> 100 µM
same,GI50,SNB-19 CNS,> 100 µM
same,TGI,SNB-19 CNS,> 100 µM
same,GI50,SNB-75 CNS,> 100 µM
same,TGI,SNB-75 CNS,> 100 µM
same,GI50,SR leukemia,> 100 µM
same,TGI,SR leukemia,> 100 µM
same,GI50,SW-620 colon,> 100 µM
same,TGI,SW-620 colon,> 100 µM
same,GI50,T-47D breast,66.3 µM
same,TGI,T-47D breast,> 100 µM
same,GI50,TK-10 renal,> 100 µM
same,TGI,TK-10 renal,> 100 µM
same,GI50,U251 glioblastoma,> 100 µM
same,TGI,U251 glioblastoma,> 100 µM
same,GI50,UACC-257 melanoma,52.1 µM
same,TGI,UACC-257 melanoma,> 100 µM
same,GI50,UACC-62 melanoma,27.1 µM
same,TGI,UACC-62 melanoma,> 100 µM
same,GI50,UO-31 renal,> 100 µM
same,TGI,UO-31 renal,> 100 µM
